Test [1] deals with ovariectomized rats. Kind of test: Trabecular density of proximal tibia, 8-PN racemic, 2S(−) 8-PN and estradiol hemihydrate in ovariectomized rats (Example 4). Format: in vivo, Sprague-Dawley rats. Particulars: OVX rats; s.c. 28 days; 20 mg/kg/d in HP-β-CD. Here is the method:
The aim of the study was to directly compare the effects of Prenylnaringenin (racemate) and 2S(−) 8-Prenylnaringenin to the effects of estradiol hemihydrate on bone mineral density and uterine weight on 3-month-old ovariectomized rats using identical formulations. In addition, the effects of estradiolhemihydrate in two vehicles (oily, aqueous) were examined for influence of formulations. The substances were administered subcutaneously(s.c.) seven days a week beginning the day after ovariectomy. At the end of the study, uterine weight and bone mineral density (BMD) of tibia were measured.
Forty-one female Sprague-Dawley rats, 12-14 weeks of age were randomized into six groups, 6-8 animals in each. Five groups were ovariectomized (OVX) and one group was sham-operated (SHAM). Treatments started on the day following operation and continued for 28 days. The animals were treated s.c. once a day seven times a week as follows. Group 1 (SHAM vehicle group) and group 2 (OVX vehicle group) were given the vehicle 30% hydroxypropyl-β-cyclodextrin (HP-β-CD). Groups 3 and 4 were administered 4 μg/kg/d of estradiol hemihydrate in vehicle benzyl benzoate/ricinus oil (B/R) and in vehicle HP-β-CD, respectively. Groups 5 and 6 were given 20 mg/kg/d of 2S(−)8-Prenylnaringenin and racemic 8-Prenylnaringenin, respectively, both in vehicle HP-β-CD. At the end of the study, left tibiae were excised for the ex vivo BMD […] were taken from all dosing solutions on the first and last day of use.
Vehicle 1 (used in the groups 1 and 2): 30% hydroxypropyl-β-cyclodextrin and 0.3% NaCl (w/v), 5% ethanol (v/v) in Aqua sterilisata, pH 7.4.
Vehicle 2 (used when preparing dosing solutions of the groups 4, 5 and 6): 30% hydroxypropyl-β-cyclodextrin and 0.3% NaCl (w/v) in Aqua sterilisata, pH 7.4.
Vehicle 3 (used when preparing a dosing solution of the group 3): benzyl benzoate/ricinus oil (B/R) 1+4, v/v.

Test [2] concerns ERE-Luc. Kind of test: Estrogenic activity in the estrogen reporter mouse ERE-Luc model, luciferase activity in organs (Example 5). Format: in vivo, mice. Here is the method:
In order to avoid experimental noise male animals were used.
Fourtyfive heterozygous male ERE-Luc mice of two months of age were fed with soy-free diet for two weeks before assigning them to each experimental group then all the mice were injected intraperitoneally (i.p.) with 250 μl of an oily solution containing the following compounds: • 1. Experimental group 1: vehicle • 2. Experimental group 2: 17β-estradiol at 1.5 μg/kg • 3. Experimental group 3: 2S(−)-8-PN at 30 mg/kg • 4. […] Experimental group 5: genistein at 30 mg/kg.
The treatment was carried out in experimental groups of three mice each and repeated three times (therefore numbers reflect the average of […] determinations on a total of 9 animals).
Six hours after the injection, mice were sacrificed by cervical dislocation and organs were dissected and frozen on dry ice. The following organs were analyzed for lucifererase activity by enzymatic assay: prostate, liver, bone, brain.
Data represent means ±standard deviation of N=9 animals per group.
Analysis of variance (ANOVA) for overall comparison was followed by Tukey test for paired comparisons. All statistical procedures were carried out with Systat and SAS (*P<0.05; **P<0.01).

Where [3] appears, read: ERE-Luc mice, at the dosages used.

On to `CC(C)=CCc1c(O)cc(O)c2c1O[C@H](c1ccc(O)cc1)CC2=O` [2S(−)8-PN, 2S(−) 8-Prenylnaringenin], for which, in test [1], the “Trabecular density at left proximal tibia, Mean” value worked out at 352 mg/cm3 and the “Trabecular density at left proximal tibia, Median” value turned out to be 352 mg/cm3. Also, in test [2] (setting [3]), the “agonist profile in bone and prostate compared with the other compounds” value is “much stronger agonist profile in bone and prostate when compared to the other compounds”; the “estrogenic activity in liver compared with the other compounds” value was “almost identical to that of the other compounds”. For the same compound, the “Luciferase activity, Bone” value in test [2] (male ERE-Luc mice, i.p. 30 mg/kg, six hours after the injection, controls 2.8) is given as 5.5 ** arbitrary units. Also, the “Luciferase activity, Brain” value in test [2] (male ERE-Luc mice, i.p. 30 mg/kg, six hours after the injection, controls 6.5) is on record as 8.0 arbitrary units. In addition, the “Luciferase activity, Liver” value in test [2] (male ERE-Luc mice, i.p. 30 mg/kg, six hours after the injection, controls 7.6) is 12.5 ** arbitrary units.

Values taken from US20070276032A1, “Use of 8-Prenylnaringenin for Hormone Replacement Therapy” (priority 2003, published 2007).
